Laboratory results reported in patent US12466779B2, “Method for obtaining oleacein and oleomissional type secoiridoids and for producing respective pharmaceutical preparations” (OMPHAX SA, priority 2019, dated 2025).

Assays:
HeLa cancer cells = assay: cytotoxic activity on HeLa cancer cells; assay type: cell-based; conditions: read-out: concentration leading to death of 50% of cells
MCF-7 cancer cells = assay: cytotoxic activity on MCF-7 cancer cells; assay type: cell-based; conditions: read-out: concentration leading to death of 50% of cells
water solubility = assay type: physicochemical; conditions: in comparison with the aldehydic forms (1)
[1] = storage stability of solutions and syrups; assay type: physicochemical; conditions: at room temperature; oleacein (1 g) in PEG200 or PEG 400 (5 ml)
Experimental: Dried olive leaves of Kalamata variety (10 kg) with 1% moisture are cut in the presence of water (100 L) at 25° C. and left in contact for 30 min. The mixture is filtered and the aqueous phase is obtained. The aqueous solution is extracted with dichloromethane (80 L) and the dichloromethane layer is obtained and evaporated under vacuum at 30° C. The residue (100 g) is made up of oleacein with a purity of 95%. The oleacein is mixed with water (10 L) under vigorous stirring for 30 min and transformed into a pure oleaceinediol solution. Alternatively, oleacein (1 g) is mixed with PEG200 or PEG 400 (5 ml) and converted into the stable polyethylene glycol hemiacetal. This solution is stable at room temperature for 12 months. This solution can be diluted to 100 ml with a saturated sugar solution affording a syrup containing 1% oleaceinediol, stable for 15-30 days with anti-inflammatory use.
Fresh olive leaves of Koroneiki variety (100 g) are left in contact with dichloromethane (500 g) at 25° C. for 30 min. The mixture is filtered and the organic phase is evaporated under vacuum. The residue is dissolved in deionized and distilled water at pH=6 (100 ml) under stirring for 24 hours, filtered and a solution of pure oleomissional is obtained. The solution is evaporated or lyophilized and oleomissional (160 mg) is obtained with a purity of >95%. […]

5S-(E)-oleaceinediol
IC50 (HeLa cancer cells): 5 µM
IC50 (MCF-7 cancer cells): 5 µM
water solubility with respect to substances (1), (2) (water solubility): greatly increased water solubility

5S-(E)-oleomissionadiol
IC50 (HeLa cancer cells): 50 µM
IC50 (MCF-7 cancer cells): 50 µM
water solubility with respect to substances (1), (2) (water solubility): greatly increased water solubility

polyethylene glycol hemiacetal of oleacein
time stable [1]: 12 months
